From patent US20260184663A1, “INDENE COMPOUNDS, PHARMACEUTICAL COMPOSITIONS THEREOF, AND THEIR THERAPEUTIC APPLICATIONS” (NucMito Pharmaceuticals co. Ltd., priority 2022, published 2026)

Legend:
Type in all cases: cell-based
[1] = tested on: MDA-MB-231 (breast cancer); test: Antiproliferative activity (CCK-8 cell viability), MDA-MB-231; conditions: Homo sapiens, 72 h; for inhibition at 3.3 µM: Compound concentration: 3.3 μM; for inhibition at 3.3 µM / inhibition at 10 µM: read-out: Antiproliferative activity in cancerous cells, MDA-MB-231 (inhibition of cell growth); for inhibition at 10 µM: Compound concentration: 10 μM; for inhibition at 30 µM: Compound concentration: 30 μM, read-out: Antiproliferative activity in cancerous cells, MDA-MB-231
In short: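 In this CCK-8 viability assay, MDA-MB-231 cells maintained in Dulbecco's modified Eagle's medium containing 10% fetal bovine serum were placed in 96-well plates (2,000-5,000 cells/well) and treated with compound for 72 h at 37° C. A 4 h incubation with 10 μL CCK-8 followed, plates were read at 450 nm, and viability was expressed against DMSO vehicle wells across replicates.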

HepG2 (liver cancer) = test: Antiproliferative activity (CCK-8 cell viability), HepG2; conditions: Homo sapiens, 72 h, read-out: Antiproliferative activity in cancerous cells, HepG2 (inhibition of cell growth); for inhibition at 3.3 µM: Compound concentration: 3.3 μM; for inhibition at 10 µM: Compound concentration: 10 μM
In short: (§1)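 Cells were seeded at 2,000-5,000/well (HeLa in MEM, HepG2 and SW480 in DMEM, A549 in F-12K, all with 10% FBS) and treated with compound at 3.3, 10 or 30 μM for 72 h at 37° C. CCK-8 was added for 4 h, absorbance was read at 450 nm, and viability was expressed relative to DMSO-treated wells.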

SW480 (colon cancer) = test: Antiproliferative activity (CCK-8 cell viability), SW480; conditions: Homo sapiens, 72 h; for inhibition at 3.3 µM: Compound concentration: 3.3 μM; for inhibition at 3.3 µM / inhibition at 10 µM: read-out: Antiproliferative activity in cancerous cells, SW480 (inhibition of cell growth); for inhibition at 10 µM: Compound concentration: 10 μM; for inhibition at 30 µM: Compound concentration: 30 μM, read-out: Antiproliferative activity in cancerous cells, SW480
In short: as §1

[2] = tested on: B16F10 (malignant melanoma); test: Antiproliferative activity (CCK-8 cell viability), B16F10; conditions: Mus musculus, 72 h, read-out: Antiproliferative activity in cancerous cells, B16F10 (inhibition of cell growth); for inhibition at 3.3 µM: B16-F10, Compound concentration: 3.3 μM; for inhibition at 10 µM: B16-F10, Compound concentration: 10 μM
In short: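 Attached B16F10 cells in 96-well plates were incubated with compound at 37° C for 72 h, followed by 10 μL CCK-8 reagent per well and a further 4 h incubation. A multi-well plate reader measured absorbance at 450 nm. Percent viability across replicates was calculated against DMSO vehicle-treated cells.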

[3] = tested on: A431 (epidermoid carcinoma); test: Antiproliferative activity (CCK-8 cell viability), A431; conditions: Homo sapiens, 72 h, read-out: Antiproliferative activity in cancerous cells, A431 (inhibition of cell growth); for inhibition at 3.3 µM: A-431, Compound concentration: 3.3 μM; for inhibition at 10 µM: A-431, Compound concentration: 10 μM
In short: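 Cell viability of compound-treated A431 cells was measured with a Cell Counting Kit-8. Each well received 10 μL of CCK-8 after 72 h of compound exposure, followed by 4 h incubation at 37° C. and a 450 nm plate-reader measurement. Percent viability was calculated relative to DMSO controls across replicates.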

[4] = tested on: A549 (lung adenocarcinoma); test: Antiproliferative activity (CCK-8 cell viability), A549; conditions: Homo sapiens, 72 h, read-out: Antiproliferative activity in cancerous cells, A549 (inhibition of cell growth); for inhibition at 3.3 µM: Compound concentration: 3.3 μM; for inhibition at 10 µM: Compound concentration: 10 μM
In short: as §1

HeLa (cervical cancer) = test: Antiproliferative activity (CCK-8 cell viability), HeLa; conditions: Homo sapiens, 72 h, read-out: Antiproliferative activity in cancerous cells, HELA (inhibition of cell growth); for inhibition at 3.3 µM: Compound concentration: 3.3 μM; for inhibition at 10 µM: Compound concentration: 10 μM
In short: as §1

SMILES	inhibition at 3.3 µM [1] [%]	inhibition at 10 µM [1] [%]	inhibition at 3.3 µM (HepG2 (liver cancer)) [%]	inhibition at 10 µM (HepG2 (liver cancer)) [%]	inhibition at 3.3 µM (SW480 (colon cancer)) [%]	inhibition at 10 µM (SW480 (colon cancer)) [%]	inhibition at 30 µM (SW480 (colon cancer)) [%]	inhibition at 3.3 µM [2] [%]	inhibition at 10 µM [2] [%]	inhibition at 3.3 µM [3] [%]	inhibition at 10 µM [3] [%]	inhibition at 3.3 µM [4] [%]	inhibition at 10 µM [4] [%]	inhibition at 3.3 µM (HeLa (cervical cancer)) [%]	inhibition at 10 µM (HeLa (cervical cancer)) [%]	inhibition at 30 µM [1] [%]
CC1=C(CC(=O)O)c2cc(F)ccc2/C1=C\c1ccc(CCc2ccc(F)cc2)cc1 [B145, (Z)-2-(5-Fluoro-1-(4-(4-fluorophenethyl)benzylidene)-2-methyl-1H-inden-3-yl)acetic acid]	< 30	< 30	< 30	≥ 50	< 30	< 30	30 to 50	< 30	< 30	≥ 50	≥ 50	< 30	< 30	30 to 50	≥ 50	–
CC1=C(CC(=O)O)c2cc(C)ccc2/C1=C\c1ccc(CCc2ccccc2)cc1 [B147, (Z)-2-(2,5-Dimethyl-1-(4-phenethylbenzylidene)-1H-inden-3-yl)acetic acid]	< 30	< 30	< 30	≥ 50	< 30	≥ 50	–	< 30	≥ 50	≥ 50	≥ 50	< 30	≥ 50	< 30	≥ 50	30 to 50
CC1=C(CC(=O)O)c2cc(Cl)ccc2/C1=C\c1ccc(COCc2ccc(F)cc2)cc1 [B148, (Z)-2-(5-Chloro-1-(4-(((4-fluorobenzyl)oxy)methyl)benzylidene)-2-methyl-1H-inden-3-yl)acetic acid]	30 to 50	30 to 50	< 30	≥ 50	≥ 50	≥ 50	–	< 30	< 30	≥ 50	≥ 50	30 to 50	≥ 50	30 to 50	≥ 50	–
CC1=C(CC(=O)O)c2cc(C)ccc2/C1=C\c1ccc(COCc2ccc(Cl)cc2)cc1 [B149, (Z)-2-(1-(4-(((4-Chlorobenzyl)oxy)methyl)benzylidene)-2,5-dimethyl-1H-inden-3-yl)acetic acid]	< 30	30 to 50	< 30	≥ 50	< 30	30 to 50	–	< 30	< 30	≥ 50	≥ 50	30 to 50	≥ 50	< 30	≥ 50	–
CC1=C(CC(=O)O)c2cc(F)ccc2/C1=C\c1ccc(COCc2ccc(C(C)C)cc2)cc1 [B150, (Z)-2-(5-Fluoro-1-(4-(((4-isopropylbenzyl)oxy)methyl)benzylidene)-2-methyl-1H-inden-3-yl)acetic acid]	30 to 50	≥ 50	< 30	≥ 50	30 to 50	≥ 50	–	< 30	≥ 50	≥ 50	≥ 50	30 to 50	≥ 50	30 to 50	≥ 50	–
CCc1ccc(COCc2ccc(/C=C3/C(C)=C(CC(=O)O)c4cc(F)ccc43)cc2)cc1 [B151, (Z)-2-(1-(4-(((4-Ethylbenzyl)oxy)methyl)benzylidene)-5-fluoro-2-methyl-1H-inden-3-yl)acetic acid]	30 to 50	≥ 50	< 30	≥ 50	30 to 50	≥ 50	–	< 30	< 30	≥ 50	≥ 50	30 to 50	≥ 50	< 30	≥ 50	–
CC1=C(CC(=O)O)c2cc(F)ccc2/C1=C\c1ccc(COCc2ccc(C(F)F)cc2)cc1 [B152, (Z)-2-(1-(4-(((4-(Difluoromethyl)benzyl)oxy)methyl)benzylidene)-5-fluoro-2-methyl-1H-inden-3-yl)acetic acid]	< 30	≥ 50	< 30	≥ 50	30 to 50	≥ 50	–	< 30	≥ 50	30 to 50	≥ 50	< 30	≥ 50	< 30	≥ 50	–
CCc1ccc2c(c1)C(CC(=O)O)=C(C)/C2=C/c1ccc(CCc2ccccc2)cc1 [B157, (Z)-2-(5-Ethyl-2-methyl-1-(4-phenethylbenzylidene)-1H-inden-3-yl)acetic acid]	< 30	< 30	< 30	≥ 50	≥ 50	≥ 50	–	< 30	≥ 50	30 to 50	≥ 50	30 to 50	≥ 50	< 30	≥ 50	–
CC1=C(CC(=O)O)c2cc(Cl)ccc2/C1=C\c1ccc(CCc2ccccc2)cc1 [B158, (Z)-2-(5-Chloro-2-methyl-1-(4-phenethylbenzylidene)-1H-inden-3-yl)acetic acid]	< 30	< 30	< 30	≥ 50	< 30	< 30	30 to 50	30 to 50	≥ 50	< 30	< 30	< 30	< 30	< 30	≥ 50	30 to 50
CC1=C(CC(=O)O)c2cc(I)ccc2/C1=C\c1ccc(Oc2ccc(F)cc2)cc1 [C28, (Z)-2-(1-(4-(4-Fluorophenoxy)benzylidene)-5-iodo-2-methyl-1H-inden-3-yl)-acetic acid]	< 30	≥ 50	30 to 50	≥ 50	< 30	≥ 50	–	30 to 50	≥ 50	< 30	≥ 50	30 to 50	≥ 50	30 to 50	≥ 50	–
